Laboratory results reported in patent US20230321067A1, “DOSING REGIMEN COMPRISING 3-(1-OXOISOINDOLIN-2-YL)PIPERIDINE-2,6-DIONE DERIVATIVES” (Novartis AG, priority 2020, published 2023).
Where “and” joins values, the source holds several entries; their conditions need not be identical. Identical values can stand only once. Entries after “also recorded” stand apart in the source; their conditions may differ.

What was measured:
Treg cells = assay: Suppressive potency of Treg cells expanded in the presence of compound (FIG. 2C); assay type: cell-based
Text: FIG. 2C is a bar graph showing the suppressive potency of Treg cells expanded in the presence of Compound I-57.

CYP2B6 = CYP2B6 (Homo sapiens, UniProt P20813); assay: Time-dependent CYP inhibition: CYP2B6; assay type: in vitro ADME; conditions: I-57 concentrations of up to 100 μM
Sequence of CYP2B6 (P20813 whole entry): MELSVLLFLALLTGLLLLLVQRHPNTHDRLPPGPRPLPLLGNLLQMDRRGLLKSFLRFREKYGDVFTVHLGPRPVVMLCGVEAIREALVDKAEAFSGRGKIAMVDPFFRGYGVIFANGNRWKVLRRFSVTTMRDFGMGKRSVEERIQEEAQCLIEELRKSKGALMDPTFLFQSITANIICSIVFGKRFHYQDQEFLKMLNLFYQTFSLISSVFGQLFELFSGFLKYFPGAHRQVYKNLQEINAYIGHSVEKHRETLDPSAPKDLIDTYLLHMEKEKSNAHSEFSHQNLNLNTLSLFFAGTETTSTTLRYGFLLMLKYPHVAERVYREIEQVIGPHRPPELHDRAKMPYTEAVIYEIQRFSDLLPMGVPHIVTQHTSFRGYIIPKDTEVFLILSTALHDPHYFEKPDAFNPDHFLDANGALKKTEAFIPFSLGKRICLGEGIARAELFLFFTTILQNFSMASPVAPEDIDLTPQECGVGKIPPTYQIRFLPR

PXR = PXR (Homo sapiens, UniProt O75469); assay: PXR reporter gene assay (CYP3A induction potential); assay type: cell-based
Text: Based on a PXR reporter gene assay, I-57's induction potential for CYP3A appears to be low.

[1] = test system: IFNγ production in Teff cells; assay: IFNγ production in Teff cells (FIG. 2D); assay type: cell-based; conditions: 2.5 nM, 25 nM and 2.5 μM vs DMSO
hERG = hERG (Homo sapiens, UniProt Q12809); assay: In vitro hERG inhibition; assay type: biochemical
Protocol: The risk of possible QTc interval prolongation at the starting dose is therefore considered low. QT prolongation may become clinically significant during escalation but are not anticipated to be dose limiting until doses at or above 640 mg. Monitoring and other measures to mitigate potential risk of arrhythmia is addressed in Example 3 below.

[2] = Blood-to-plasma ratio, human; assay type: in vitro ADME
Text: (§1) The binding to plasma protein of I-57 in vitro was moderate in all species, with an observed difference between rodents (73% in mouse, 76% in rat) and non-rodents (52% in dog and monkey, 54% in human). Blood-to-plasma ratios were in the range of 0.7-1.8 (human 1.1-1.3). […] Based on results with non-radiolabeled I-57 in the dog, a significant amount of unchanged I-57 was renally eliminated (˜20% of dose).

IKZF2 [3] = target: IKZF2 (Homo sapiens, UniProt Q96SW2+Q9UKS7); assay: IKZF2 degradation in primary human PBMCs; assay type: cell-based; design: endogenous in cells; host or cells: primary human PBMCs
Sequence of IKZF2 (Homo sapiens, UniProt Q96SW2+Q9UKS7) (Q9UKS7 whole entry): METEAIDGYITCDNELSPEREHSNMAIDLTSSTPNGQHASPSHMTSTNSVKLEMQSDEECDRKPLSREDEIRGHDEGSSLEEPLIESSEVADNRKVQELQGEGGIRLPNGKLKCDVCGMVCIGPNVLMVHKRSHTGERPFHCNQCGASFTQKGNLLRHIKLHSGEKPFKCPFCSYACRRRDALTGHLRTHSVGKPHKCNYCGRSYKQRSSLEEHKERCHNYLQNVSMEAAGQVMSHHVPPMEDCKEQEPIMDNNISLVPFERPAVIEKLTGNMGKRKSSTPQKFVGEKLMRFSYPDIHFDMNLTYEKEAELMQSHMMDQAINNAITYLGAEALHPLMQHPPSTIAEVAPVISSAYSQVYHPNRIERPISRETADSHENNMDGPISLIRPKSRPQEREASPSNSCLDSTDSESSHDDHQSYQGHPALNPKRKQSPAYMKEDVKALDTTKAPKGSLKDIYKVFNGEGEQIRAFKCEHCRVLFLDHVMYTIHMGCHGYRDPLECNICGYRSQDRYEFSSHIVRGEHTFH
Sequence of IKZF2 (Homo sapiens, UniProt Q96SW2+Q9UKS7) (Q96SW2 whole entry): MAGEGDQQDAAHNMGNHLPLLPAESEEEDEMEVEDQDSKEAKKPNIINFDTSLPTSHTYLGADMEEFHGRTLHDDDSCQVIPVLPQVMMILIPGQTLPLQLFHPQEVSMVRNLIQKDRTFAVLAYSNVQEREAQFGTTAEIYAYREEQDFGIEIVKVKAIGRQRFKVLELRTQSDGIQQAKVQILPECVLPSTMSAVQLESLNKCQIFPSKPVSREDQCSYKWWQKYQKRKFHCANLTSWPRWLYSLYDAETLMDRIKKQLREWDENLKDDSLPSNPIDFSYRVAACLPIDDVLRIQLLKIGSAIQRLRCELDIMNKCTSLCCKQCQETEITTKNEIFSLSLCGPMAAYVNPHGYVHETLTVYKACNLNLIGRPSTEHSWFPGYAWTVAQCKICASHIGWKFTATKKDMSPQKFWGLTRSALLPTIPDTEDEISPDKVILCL
Sequence of IKZF2 (Homo sapiens, UniProt Q96SW2+Q9UKS7) (Q16531 whole entry partner): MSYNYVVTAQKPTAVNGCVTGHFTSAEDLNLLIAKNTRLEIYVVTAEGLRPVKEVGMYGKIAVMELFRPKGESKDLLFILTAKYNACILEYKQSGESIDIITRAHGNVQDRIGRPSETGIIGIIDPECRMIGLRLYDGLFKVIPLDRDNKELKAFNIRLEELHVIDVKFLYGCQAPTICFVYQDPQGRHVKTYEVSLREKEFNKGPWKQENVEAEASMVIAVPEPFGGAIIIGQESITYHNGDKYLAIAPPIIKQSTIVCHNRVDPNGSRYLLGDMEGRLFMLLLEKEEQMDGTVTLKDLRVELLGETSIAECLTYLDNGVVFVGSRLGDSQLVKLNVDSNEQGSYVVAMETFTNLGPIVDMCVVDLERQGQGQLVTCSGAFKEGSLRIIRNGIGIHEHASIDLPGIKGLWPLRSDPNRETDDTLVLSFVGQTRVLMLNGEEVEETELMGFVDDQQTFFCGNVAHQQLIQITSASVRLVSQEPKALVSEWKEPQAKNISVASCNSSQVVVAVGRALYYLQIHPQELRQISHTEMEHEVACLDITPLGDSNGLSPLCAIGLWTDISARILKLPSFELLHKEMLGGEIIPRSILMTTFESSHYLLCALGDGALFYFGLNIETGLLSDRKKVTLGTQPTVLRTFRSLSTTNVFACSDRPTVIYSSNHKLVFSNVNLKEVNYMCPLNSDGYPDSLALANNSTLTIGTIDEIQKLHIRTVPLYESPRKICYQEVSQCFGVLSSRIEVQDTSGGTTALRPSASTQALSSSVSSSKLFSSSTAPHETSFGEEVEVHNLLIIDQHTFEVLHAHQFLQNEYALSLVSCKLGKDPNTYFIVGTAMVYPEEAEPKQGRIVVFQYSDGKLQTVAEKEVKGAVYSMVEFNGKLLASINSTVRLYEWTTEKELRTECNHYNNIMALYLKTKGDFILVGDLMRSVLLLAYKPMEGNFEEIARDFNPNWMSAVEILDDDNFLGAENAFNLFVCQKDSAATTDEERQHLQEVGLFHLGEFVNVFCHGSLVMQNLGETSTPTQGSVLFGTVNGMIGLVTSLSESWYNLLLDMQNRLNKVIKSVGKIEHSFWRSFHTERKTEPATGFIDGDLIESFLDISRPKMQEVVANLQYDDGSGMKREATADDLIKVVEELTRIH
Text: (§2) Although the specific transcriptional targets of IKZF2 remain to be defined, IKZF2 binds to and represses transcription from the IL-2 promoter region (Baine 2013). […] Finally, an in vitro assay recapitulating hallmarks of T cell dysfunction/exhaustion, by sequential TCR stimulation of isolated primary human T cells, was used to test the hypothesis that […] would rescue the exhausted phenotype and enhance Teff cell activity. […] In addition to IKZF1, other known cereblon substrates including translation termination factor G1 to S phase transition 1 (GSPT1) are not degraded by I-57 (FIG. 1).
I-57 mediated degradation of IKZF2 was assessed in primary PBMCs obtained from rabbit, dog, pig, cynomolgus monkey, and human, and in primary splenocytes of mouse and rat. […] Species-specificity due to species specific alteration CRBN primary structure have previously been described with other compounds known to interact with the CRBN ubiquitin ligase complex to elicit protein specific degradation (Krönke et al, 2015).

CYP2C8 = CYP2C8 (Homo sapiens, UniProt P10632); assay: CYP inhibition: CYP2C8; assay type: in vitro ADME; conditions: I-57 concentrations of up to 100 μM
FIZ1 = target: T1, FIZ1 (Homo sapiens, UniProt Q96SL8); assay: Whole cell proteomic analysis in 293T cells and subsequent analyses: FIZ1; assay type: cell-based
T1 construct: endogenous in cells; host or cells: 293T
T1 sequence (Q96SL8 whole entry): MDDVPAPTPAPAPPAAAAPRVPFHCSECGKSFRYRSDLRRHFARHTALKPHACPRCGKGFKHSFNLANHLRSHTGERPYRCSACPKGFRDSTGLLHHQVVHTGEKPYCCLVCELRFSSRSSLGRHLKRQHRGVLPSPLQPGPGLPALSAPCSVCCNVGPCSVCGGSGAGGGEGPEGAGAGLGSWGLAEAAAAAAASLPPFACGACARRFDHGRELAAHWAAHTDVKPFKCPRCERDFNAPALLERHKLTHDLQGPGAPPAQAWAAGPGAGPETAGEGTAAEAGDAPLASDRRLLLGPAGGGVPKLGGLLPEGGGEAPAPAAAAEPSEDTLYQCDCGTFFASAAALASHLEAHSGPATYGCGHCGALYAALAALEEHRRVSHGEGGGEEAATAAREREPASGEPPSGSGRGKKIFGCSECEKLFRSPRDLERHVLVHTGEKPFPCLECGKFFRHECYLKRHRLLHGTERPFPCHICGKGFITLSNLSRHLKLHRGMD
Protocol: Other potential degradation targets of I-57 were evaluated in 293T cells using whole cell proteomic analysis. […] Subsequent analyses have confirmed that FIZ1 is degraded by about 50% at a 10 μM concentration of I-57 ([I-57 Investigator's Brochure]). […] FIZ1 is expressed in the neural retina where it transcriptionally represses the differentiation of photoreceptors. FIZ1 is also expressed in non-ocular tissues with unknown function.

[4] = In vivo non-clinical PK, rat
Protocol: (§3) The in vivo non-clinical PK profile of I-57 was investigated in mouse, rat, dog and cynomolgus monkey using I-57 free base. […] After p.o. administration, the absorption of I-57 was rapid with peak blood concentration (Tmax) occurring between 1 and 4 hours. […] In high dose PK and toxicology studies with I-57 the exposures in mouse, rat and monkey increased with dose.

[5] = In vivo non-clinical PK, mouse
Protocol: as §3, §1

IKZF2 [6] = target: T2, IKZF2 (Oryctolagus cuniculus, UniProt A0A5F9CPW0); assay: Degradation of IKZF2 in primary PBMCs, rabbit (FIG. 3); assay type: cell-based
T2 construct: endogenous in cells; host or cells: primary rabbit PBMCs
T2 sequence (A0A5F9CPW0 1-526): as the sequence (Q9UKS7 whole entry) above, with E68D, M234V, I266M, A373S, H423N, A449V counted along it
Text: FIG. 3. is a bar graph showing the degradation of IKZF2 in primary PBMCs obtained from rabbit, dog, pig, cynomolgus monkey and human, and in primary splenocytes of mouse and rat and treated with Compound I-57.

IKZF1 (Ikaros) = target: T3, IKZF1 (Ikaros) (Homo sapiens, UniProt Q13422); assay: IKZF1 degradation in vitro (FIG. 1); assay type: cell-based
T3 construct: ProLabel; expressed in transfected cells; host or cells: HEK293T
T3 sequence (Q96SW2 whole entry partner): as the sequence (Q96SW2 whole entry) above
T3 sequence (Q16531 whole entry partner): as the sequence (Q16531 whole entry partner) above
T3 sequence (Q13422 whole entry): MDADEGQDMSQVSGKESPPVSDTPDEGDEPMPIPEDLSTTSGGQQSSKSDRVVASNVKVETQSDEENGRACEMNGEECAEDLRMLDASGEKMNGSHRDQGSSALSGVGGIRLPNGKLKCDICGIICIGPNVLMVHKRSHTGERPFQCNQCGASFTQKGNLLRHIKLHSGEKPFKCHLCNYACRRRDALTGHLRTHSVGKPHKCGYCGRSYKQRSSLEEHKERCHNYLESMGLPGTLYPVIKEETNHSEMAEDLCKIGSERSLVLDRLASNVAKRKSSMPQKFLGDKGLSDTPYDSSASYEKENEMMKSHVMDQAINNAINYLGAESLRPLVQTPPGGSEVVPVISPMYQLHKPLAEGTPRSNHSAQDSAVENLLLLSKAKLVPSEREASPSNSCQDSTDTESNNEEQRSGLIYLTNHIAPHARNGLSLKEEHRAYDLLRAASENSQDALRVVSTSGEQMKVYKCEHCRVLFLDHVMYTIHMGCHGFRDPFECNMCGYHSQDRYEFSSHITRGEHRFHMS
Text: as §2

[7] = test system: isolated primary human T cells; assay: In vitro T cell dysfunction/exhaustion assay (sequential TCR stimulation); assay type: cell-based
Text: as §2

GSPT1 = target: T4, GSPT1 (Homo sapiens, UniProt P15170); assay: GSPT1 degradation in vitro (FIG. 1); assay type: cell-based
T4 construct: prolabel (ProLabel enzyme-fragment tag); expressed in transfected cells; host or cells: HEK293T
T4 sequence (Q96SW2 whole entry partner, the tested form may be a part): as the sequence (Q96SW2 whole entry) above
T4 sequence (Q16531 whole entry partner, the tested form may be a part): as the sequence (Q16531 whole entry partner) above
T4 sequence (P15170 whole entry, the tested form may be a part): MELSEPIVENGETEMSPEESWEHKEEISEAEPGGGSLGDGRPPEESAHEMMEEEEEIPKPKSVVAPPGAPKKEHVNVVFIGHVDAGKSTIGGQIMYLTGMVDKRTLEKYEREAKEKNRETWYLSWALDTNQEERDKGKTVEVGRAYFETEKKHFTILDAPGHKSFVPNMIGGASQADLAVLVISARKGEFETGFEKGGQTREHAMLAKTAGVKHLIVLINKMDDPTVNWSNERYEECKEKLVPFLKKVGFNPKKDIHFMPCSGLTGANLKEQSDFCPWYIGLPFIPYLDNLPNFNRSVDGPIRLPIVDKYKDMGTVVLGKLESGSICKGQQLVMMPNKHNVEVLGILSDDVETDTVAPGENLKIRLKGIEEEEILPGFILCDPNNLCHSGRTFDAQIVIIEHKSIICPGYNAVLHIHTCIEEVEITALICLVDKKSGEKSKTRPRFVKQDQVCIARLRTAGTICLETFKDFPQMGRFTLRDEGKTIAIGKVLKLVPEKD
Text: as §2

CYP2C19 = CYP2C19 (Homo sapiens, UniProt P33261); assay: Time-dependent CYP inhibition: CYP2C19; assay type: in vitro ADME; conditions: I-57 concentrations of up to 100 μM
Sequence of CYP2C19 (P33261 whole entry): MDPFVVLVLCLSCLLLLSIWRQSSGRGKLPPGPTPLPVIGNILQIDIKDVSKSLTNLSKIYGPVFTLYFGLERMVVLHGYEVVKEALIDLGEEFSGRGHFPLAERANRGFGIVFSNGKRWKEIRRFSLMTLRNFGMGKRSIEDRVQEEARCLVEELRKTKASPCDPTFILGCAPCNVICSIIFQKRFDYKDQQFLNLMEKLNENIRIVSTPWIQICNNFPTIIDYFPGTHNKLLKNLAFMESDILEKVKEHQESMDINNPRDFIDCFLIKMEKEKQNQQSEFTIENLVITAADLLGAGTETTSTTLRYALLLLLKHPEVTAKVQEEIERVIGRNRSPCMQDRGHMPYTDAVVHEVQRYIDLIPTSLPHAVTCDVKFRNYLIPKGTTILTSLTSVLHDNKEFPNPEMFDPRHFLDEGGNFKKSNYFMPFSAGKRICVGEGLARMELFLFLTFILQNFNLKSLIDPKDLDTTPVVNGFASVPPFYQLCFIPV

plasma protein = assay: Plasma protein binding in vitro, human; assay type: in vitro ADME
Text: as §1

With `O=C1CCC(N2Cc3cc(C4CCN(Cc5ccccc5)CC4)ccc3C2=O)C(=O)N1` (stereo not drawn) [Compound I-57, 3-(5-(1-benzylpiperidin-4-yl)-1-oxoisoindolin-2-yl)piperidine-2,6-dione] the “capacity of Treg cells to suppress Teff proliferation” value (Treg cells) was “reduced capacity to suppress Teff proliferation”, the “time-dependent inhibition of CYP2B6” value (CYP2B6) was “no apparent time-dependent inhibition” and the “induction potential for CYP3A” value (PXR) was “low”. For the same compound, the “IFNγ production by IKZF2+ cells” value [1] was “concomitant increase in IFNγ production”, the IC50 (hERG) was 7100 nM and the blood plasma ratio [2] was 1.1 to 1.3. For the same compound, the DC50 (IKZF2 [3]; human PBMC, read-out: AC50 for IKZF2 degradation (converted)) was ~4 nM and ~4.07 nM, the “degradation of IKZF2” value (IKZF2 [3]; primary human PBMCs in vitro) was “potent degradation; also recorded: Degradation was observed” and the “inhibition of CYP2C8” value (CYP2C8) was “very little and no inhibition”. The “degradation of FIZ1” value (FIZ1; 10 μM I-57, subsequent analyses) was “about 50%”, the “degradation of FIZ1” value (FIZ1; 293T cells, whole cell proteomic analysis) was “degraded” and the “dose proportionality of AUC” value ([4]; between 3 mg/kg and 300 mg/kg) was “roughly dose proportional”. For the same compound, the bioavailability ([4]; blood, po) was 90%, the phototoxic potential (Phototoxic potential) was “no genotoxic or phototoxic potential” and the “dose proportionality of AUC” value ([5]; between 3 mg/kg and 100 mg/kg) was “roughly dose proportional”. For the same compound, the bioavailability ([5]; blood, po) was 53%, the Kp ([5]; brain, read-out: brain/plasma ratio) was 0.07 and the “degradation of IKZF2” value (IKZF2 [6]) was “degradation was observed”. For the same compound, the “degradation of IKZF1” value (IKZF1 (Ikaros)) was “not degraded”, the IKZF2 degradation [7] was “degraded IKZF2 in a dose-dependent manner” and the “interferon gamma production by IKZF2 positive cells” value [7] was “concomitant increase”. The “degradation of GSPT1” value (GSPT1) was “not degraded”, the “time-dependent inhibition of CYP2C19” value (CYP2C19) was “no apparent time-dependent inhibition” and the “binding to plasma protein” value (plasma protein) was 54%.
